Source: patent US20150113683A1, “METHODS FOR PLANT TRANSFORMATION USING SPECTINOMYCIN SELECTION” (Monsanto Technology LLC, priority 2007, published 2015)
Values joined by “and” are separate entries in the source; they are usually repeats but may differ in a detail not shown here. Equal entries are not always repeated.

Tests used:
soybean explants [1] = assay: BAP or TDZ for 4 days after co-cultivation: GFP-positive bud development, dicamba selection; format: cell-based, soybean (Glycine max); conditions: for # Explants w/ GFP+ buds / % Explants w/ GFP+ buds: 0.01 mg/L dicamba selection, 24 DAI; for effect on final transformation frequencies (TFs): addition of cytokinin with dicamba selection
soybean explants [2] = assay: BAP during co-culture and post co-culture delay: rooted plants and TF, spectinomycin selection; format: cell-based, soybean (Glycine max); conditions: 150 mg/L spectinomycin selection
Experimental: Soybean explants were inoculated and co-cultured with Agrobacterium harboring pMON96999 (FIG. 2). The inoculation and co-culture medium were supplemented with 0, 1, 2, 3, 4 or 5 mg/L BAP. […] The explants were then transferred onto selection medium (the same as the delay medium but containing 150 mg/L spectinomycin) for shoot induction and selection. […] To determine how many explants could develop transformed shoots without BAP treatment, explant tissues were assayed for GUS activity at 42 days after inoculation. […] Most of them were axillary, and some of them were apparently chimeric. The explants treated with BAP had much less or non-elongated primary shoots, and more de novo shoots. Many of the shoots elongated on the selection medium and were harvested to induce roots on the root induction medium also containing 150 mg/L spectinomycin as in protocol “A”.

dry soybean explants = assay: Transformation frequency of dry soybean explants using glyphosate or spectinomycin as selective agent; format: cell-based; conditions: Glyphosate 50 uM in regeneration medium; dry soybean explants
soybean explants [3] = assay: TDZ in inoculation/co-culture medium: shoots harvested and transformed rooted shoots, glyphosate selection; format: cell-based, soybean (Glycine max)
soybean explants [4] = assay: TDZ during inoculation/co-cultivation: GFP-positive bud/shoot development, glyphosate selection; format: cell-based, soybean (Glycine max); conditions: for # Explants with GFP+ buds/shoots: 200 explants examined
soybean explants [5] = assay: TDZ during inoculation and co-culture: development of GUS-positive buds; format: cell-based, soybean (Glycine max); conditions: for # Explants w/ GUS+ buds (13 DAI): 96 explants assayed
[6] = tested on: 3 months stored dry soybean explants; assay: Stored dry soybean explants, spectinomycin, pre-culture: TF; format: cell-based; conditions: nystatin 50 ppm and thiabendazole 10 ppm dissolved in DMSO added together to INO co-culture media
[7] = 1 mg/L for 4 days after co-cultivation
[8] = 2 mg/L for 4 days after co-cultivation
[9] = BAP 1 mg/L in co-culture & 4-d post co-culture delay medium
[10] = BAP 2 mg/L in co-culture & 4-d post co-culture delay medium
[11] = BAP 3 mg/L in co-culture & 4-d post co-culture delay medium
[12] = BAP 4 mg/L in co-culture & 4-d post co-culture delay medium
[13] = BAP 5 mg/L in co-culture & 4-d post co-culture delay medium
[14] = TDZ 0.5 mg/L in inoculation and co-cultivation medium
[15] = TDZ 1.0 mg/L in inoculation and co-cultivation medium
[16] = TDZ 1.5 mg/L in inoculation and co-cultivation medium
[17] = TDZ 2.0 mg/L in inoculation and co-cultivation medium
[18] = TDZ 3.0 mg/L in inoculation and co-cultivation medium
[19] = TDZ 1 mg/L for inoculation/co-culture, glyphosate selection
[20] = TDZ 2 mg/L for inoculation/co-culture, glyphosate selection
[21] = TDZ 3 mg/L for inoculation/co-culture, glyphosate selection
[22] = TDZ 0.5 mg/L for inoculation & co-culture
[23] = TDZ 1.0 mg/L for inoculation & co-culture
[24] = TDZ 2.0 mg/L for inoculation & co-culture

`c1ccc(CNc2ncnc3nc[nH]c23)cc1` [BAP, 6-Benzylaminopurine] was tested, and the “# Explants w/ GFP+ buds” value (soybean explants [1]; [7]) was 12, the “% Explants w/ GFP+ buds” value (soybean explants [1]; [7]) was 3.7% and the “# Explants w/ GFP+ buds” value (soybean explants [1]; [8]) was 11. For the same molecule, the “% Explants w/ GFP+ buds” value (soybean explants [1]; [8]) was 3.3%, the “effect on final transformation frequencies (TFs)” value (soybean explants [1]) was “no visible effect” and the “# Rooted plants” value (soybean explants [2]; [9]) was 103. The “% TF” value (soybean explants [2]; [9]) was 26.1%, the “# Rooted plants” value (soybean explants [2]; [10]) was 94 and the “% TF” value (soybean explants [2]; [10]) was 27.1%. The “# Rooted plants” value (soybean explants [2]; [11]) was 87, the “% TF” value (soybean explants [2]; [11]) was 24.9% and the “# Rooted plants” value (soybean explants [2]; [12]) was 132. The “% TF” value (soybean explants [2]; [12]) was 30.3%, the “# Rooted plants” value (soybean explants [2]; [13]) was 116 and the “% TF” value (soybean explants [2]; [13]) was 26.6%.

In the case of `O=C(O)CNCP(=O)(O)O` [Glyphosate, glyphosate], the “% TF” value (dry soybean explants) was 2.00% and the transformation frequency (soybean explants [3]; comparable experiments utilizing glyphosate as selective agent) was roughly 2%.

In the case of `O=C(Nc1ccccc1)Nc1cnns1` [TDZ, thidiazuron], the “Frequency of explants with GFP+ buds/shoots” value (soybean explants [4]; [14]) was 18%, the “# Explants with GFP+ buds/shoots” value (soybean explants [4]; [14]) was 36 and the “Frequency of explants with GFP+ buds/shoots” value (soybean explants [4]; [15]) was 24%. The “# Explants with GFP+ buds/shoots” value (soybean explants [4]; [15]) was 48, the “Frequency of explants with GFP+ buds/shoots” value (soybean explants [4]; [16]) was 25% and the “# Explants with GFP+ buds/shoots” value (soybean explants [4]; [16]) was 50. For the same molecule, the “Frequency of explants with GFP+ buds/shoots” value (soybean explants [4]; [17]) was 30%, the “# Explants with GFP+ buds/shoots” value (soybean explants [4]; [17]) was 60 and the “Frequency of explants with GFP+ buds/shoots” value (soybean explants [4]; [18]) was 32%. The “# Explants with GFP+ buds/shoots” value (soybean explants [4]; [18]) was 64, the “# Explants w/ GFP+ buds” value (soybean explants [1]; [7]) was 71 and the “% Explants w/ GFP+ buds” value (soybean explants [1]; [7]) was 18.3%. For the same molecule, the “# Explants w/ GFP+ buds” value (soybean explants [1]; [8]) was 53, the “% Explants w/ GFP+ buds” value (soybean explants [1]; [8]) was 13.8% and the “effect on final transformation frequencies (TFs)” value (soybean explants [1]) was “no visible effect”. For the same molecule, the “% Transformed rooted shoots” value (soybean explants [3]; TDZ 0.5 mg/L for inoculation/co-culture, glyphosate selection) was 1.1% and 1.4% and 4.3%, the “% Transformed rooted shoots” value (soybean explants [3]; [19]) was 1.3% and 1.6% and 0.5% and 3.2% and 1% and the “Shoots harvested, % Shooting Frequency” value (soybean explants [3]; [19]) was 4.9% and 7% and 3.5% and 13% and 6.8%. For the same molecule, the “% Transformed rooted shoots” value (soybean explants [3]; [20]) was 0.1% and 1.3% and 0.9% and 0.5%, the “Shoots harvested, % Shooting Frequency” value (soybean explants [3]; [20]) was 1.4% and 4.9% and 5.1% and 6.7% and 1.9% and the “% Transformed rooted shoots” value (soybean explants [3]; [21]) was 0.6% and 0.7%. For the same molecule, the “Rooted shoots, Total #” value (soybean explants [3]; [21]) was 5 and 8, the “Shoots harvested, % Shooting Frequency” value (soybean explants [3]; [21]) was 4.7% and 1.9% and the “Shoots harvested, Total #” value (soybean explants [3]; [21]) was 40 and 20. The “% Explants with GUS+ buds (13 DAI)” value (soybean explants [5]; [22]) was 18.8%, the “# Explants w/ GUS+ buds (13 DAI)” value (soybean explants [5]; [22]) was 18 and the “% Explants with GUS+ buds (13 DAI)” value (soybean explants [5]; [23]) was 35.4%. The “# Explants w/ GUS+ buds (13 DAI)” value (soybean explants [5]; [23]) was 34, the “% Explants with GUS+ buds (13 DAI)” value (soybean explants [5]; [24]) was 50.0% and the “# Explants w/ GUS+ buds (13 DAI)” value (soybean explants [5]; [24]) was 48.

`C[C@@H]1[C@H](O)[C@@H](C)/C=C/C=C/CC/C=C/C=C/C=C/C=C/C(O[C@H]2O[C@H](C)[C@@H](O)[C@H](N)[C@@H]2O)CC2O[C@](O)(CC(O)C(O)CCC(O)CC(O)CC(O)CC(=O)O[C@H]1C)CC(O)C2C(=O)O` (stereo partly shown) [nystatin] was tested, and the health of explants [6] was “improved the health of explants”.

`c1ccc2[nH]c(-c3cscn3)nc2c1` [thiabendazole] was tested, and the health of explants [6] was “improved the health of explants”.
